This passage reports logD and logP results from the SangsterLogP compilation.

A short description of the first data set: method code SF-HPLC, from DOI: 10.1016/j.ejps.2004.08.007, PMID: 15567286. The conditions noted are these: pH 7.4.
In turn, `CCCCOC(=O)Nc1cc[nH]c(=O)n1` registered a pH-dependent lipophilicity (logD) of 1.1.

Compound `CC(C)(C)COC(=O)Nc1cc[nH]c(=O)n1` gave a logD of 1.5.

`COC(=O)Nc1cc[nH]c(=O)n1` yielded a logD of -0.55.

For the compound `CCCCCCCCOC(=O)Nc1cc[nH]c(=O)n1`, the logD is 3.3.

The compound `CCOC(=O)Nc1cc[nH]c(=O)n1` had a logD of -0.09.

As to `O=C(Nc1cc[nH]c(=O)n1)OCc1ccccc1`, the logD is 1.3.

For `CC(C)COC(=O)Nc1cc[nH]c(=O)n1`, the logD was 1.1.

In the case of `CCCCCCOC(=O)Nc1cc[nH]c(=O)n1`, the logD is 2.3.

The compound `O=C(Nc1cc[nH]c(=O)n1)OC12CC3CC(CC(C3)C1)C2` came in with a logD of 2.9.

The next data set can be described thus: method code SF, from DOI: 10.1016/j.ejps.2004.08.007, PMID: 15567286.
Settings: not given
With `O=Cc1ccc(C(=O)O)cc1`, the logP is 1.52.

A word on the logD: it is the decadic logarithm of the distribution of all forms, ionised or not, between an organic phase and buffer at a given pH. Low values mean a more hydrophilic compound, high ones a more lipophilic compound. Broadly, the logP is a log measure of how a compound divides between an organic and an aqueous phase. High values mean higher lipophilicity, low ones lower lipophilicity.
